# Reference: patent publication US6407137B2, “Dopamine analog amide” (Protarga, Inc., priority 1988, dated 2002)
# Like-named read-outs stand apart in the source and are kept apart here.
# Key:
# [1] = Brain penetration index (BPI) determination, brain uptake relative to liver; format: in vivo, male balb C mice; conditions: for crossing of the blood brain barrier (in words): variations of the carrier
# Text: A brain penetration index (BPI) determination was used as a criterion for measuring the capacity of a compound to cross the blood brain barrier. Shashoua, V. E., Jacob, J. N., Ridge, R., Campbell, A. and Baldessarini, R. J., J. Med. Chem. 27, 659 (1984). The BPI is a measure of the uptake of a compound by the brain relative to its uptake by the liver. The liver is chosen as a reference since it is an organ which has no barrier to diffusable molecules present in the blood. Moreover, even if subcutaneous injections are used, the injected material tends to remain largely at the site of the injection and slowly diffuse into the circulation. Therefore, the amount of material in the liver will reflect the amount available rather than the initial dose injected.
# Measurements of the quantity of the drug present in the brain and liver were measured at five minutes after a subcutaneous injection and were used to calculate the BPI, the equation being: […]
# For these measurements, compound 8739 was synthesized from ^14C-labeled dopamine. Thirty μCi of dopamine labeled hydrochloride was mixed with 0.1 mg of unlabeled dopamine hydrobromide and reacted with a two-fold excess of DHA anhydride. The reaction was run overnight; the product was then evaporated to dryness and dissolved in ethanol. The compound was identified as 8739 by its migration properties on thin-layer chromatography using chloroform:methanol as one solvent and dimethylformamide (DMF) as the other. The migration properties were equivalent to those of the unlabeled product.
# ^14C-labeled 8739 was dissolved in 15% propylene glycol in 0.1 M NaHCO3 and then injected subcutaneously (s.c.) into male balb C mice (20±2 g). After 5 minutes the animals were sacrificed by cervical fracture and the brain and liver were dissected out, weighed and homogenized in 8 and 10 ml of Brain Protein Solvent (BPS) buffer, respectively [BPS=2% sodium dodecyl sulfate in 0.03 M Tris, 6 M urea, pH 7.6, 0.01 M EDTA and 0.14 N NaCl]. Aliquots were then counted for ^14C content in 10 ml of a liquid scintillation fluid, Liquiscent (National Diagnostic Company, Somerville, N.J.) using a Beckman liquid scintillation counter. The ^14C counts were then used to calculate the total quantity of compound 8739 present in the brain per gram of tissue as compared to that in the liver. The ratio of the amount in the brain as a percent of that present in liver was determined.
# [2] = Food consumption measurements; format: in vivo, balb-c mice; conditions: variations of the carrier
# Description: The effect of compound 8739 on food consumption was determined for balb-c mice that were food deprived for 24 hr, with water freely available. The six test mice were given an i.p. injection of compound 8739 as a solution in 15% propylene glycol in 0.1 M NaHCO3, a total volume of between about 0.1-0.3 ml. The six control mice received the same volume of vehicle, but no drug. The quantity of “mouse chow” eaten during the 60-min period following the injections was determined. The results, also shown in FIG. 1, are expressed as the percent decrease in food consumption for the test group versus the control group. […] The decrease was dose dependent, with higher doses of compound 8739 causing greater decrease in food intake. The same experiment was conducted using oral administration of compound 8739.
# [3] = Circling behavior in rats with unilateral nigrostriatal lesions; format: in vivo; conditions: for AVERAGE ROTATION SCORES (Rotations/minutes) Contralateral / AVERAGE ROTATION SCORES (Rotations/minutes) Ipsilateral: 30-min period; for circling behavior (in words): rats with nigrostriatal lesions, i.p.
# Description: Dopamine agonists such as apomorphine and amphetamine cause circling behavior in animals with nigrostriatal lesions.
# Unilateral nigrostriatal lesions in rats were produced by administering unilateral injections of 6-OH dopamine into the nigrostriatum pathway. Seven days later, these animals were i.p. injected with the test drugs and circling behavior was recorded as rotations per minute during a 30-min period in the test apparatus, Ungerstedt U. and Arbathnott G. W., Brain Res. 24, 485-493 (1970).
# [4] = Test for tolerance: food consumption during long-term administration; format: in vivo, mice; conditions: 2 mg/kg i.p. daily for 21 days
# Description: The effect of long-term administration of compound 8739 on the pattern of food consumption of mice was compared to the long-term effects of the administration of amphetamine. Daily i.p. injections of compound 8739 (20 mg/kg) were given to test animals and daily i.p. injections of amphetamine (2 mg/kg) were given to control animals for 21 days. 24 hours after the first injection and about every five days after that, the animals were food-deprived for 24 hours with water freely available, and then were tested for food consumption for one-hour beginning at five minutes after receiving their daily injection.
# FIG. 4 plots the percent decrease in food consumption versus time.
# [5] = animal tests, background; cited from earlier work
# [6] = reported in the literature; cited from earlier work
# [7] = Open-field motor activity measurement; format: in vivo, balb-c mice; conditions: administered at the same dose as compound 8739
# Description: The effect of compound 8739 on general motor activity was determined. The general motor activity of balb-c mice was measured in a Stoelting electronic activity monitor apparatus during a 90-min period following an intraperitoneal injection of the compound as a solution in 15% propylene glycol in 0.1 M NaHCO3. A detailed description of the apparatus is reported in Stewart R. J., Campbell A., Spark G. and Balessarini R. J. Psychopharmacol. 60, 281 (1979).
# The test group (six mice) received an i.p. injection of the drug in a vehicle (15% propylene glycol in 0.1 M NaHCO3, a total volume of between about […].). The six control mice received the same volume of vehicle, but no drug. The results (Shown in FIG. 1,) are expressed as the percent decrease in open field activity for the test group versus the control group. […] The response was dose dependant with higher doses of compound 8739 resulting in a greater decrease in general motor activity.
# The effects of the mode of delivery of Compound 8739 (oral vs. i.p.) on the general open-field activity of mice (n=6) was assessed. […] A 40-50% decrease in activity occurred when either delivery method was employed.
# [8] = previous reports, Chan and Fishman, SCIENCE (1978); cited from earlier work
structure (smiles),measurement,setting,value
CCCCCCCCCCCC(=O)NCCc1ccc(O)c(O)c1,crossing of the blood brain barrier (in words),[1],does not effectively cross the blood brain barrier
same,activity as an appetite-suppressant (in words),[2],completely inactive
CCCCCCCCCCCCCCCCCCCCCC(=O)NCCc1ccc(O)c(O)c1,crossing of the blood brain barrier (in words),[1],does not effectively cross the blood brain barrier
same,activity as an appetite-suppressant (in words),[2],essentially inactive
CC(N)Cc1ccccc1 (stereo not drawn) [Amphetamine],AVERAGE ROTATION SCORES (Rotations/minutes) Contralateral,[3]; 3.0 mg/kg i.p.,0.4 Rotations/minutes
same,AVERAGE ROTATION SCORES (Rotations/minutes) Ipsilateral,[3]; 3.0 mg/kg i.p.,2.5 Rotations/minutes
same,AVERAGE ROTATION SCORES (Rotations/minutes) Contralateral,[3]; 5.0 mg/kg i.p.,0.92 Rotations/minutes
same,AVERAGE ROTATION SCORES (Rotations/minutes) Ipsilateral,[3]; 5.0 mg/kg i.p.,3.32 Rotations/minutes
same,circling behavior (in words),[3],circling rapidly to the ipsilateral lesion side
same,decrease in food intake over time,[4],virtually disappeared after 15 days
same,tolerance,[4]; food intake,complete tolerance
same,time within which tolerance develops,[5],3 to 15 days
CN1CCc2cccc3c2[C@H]1Cc1ccc(O)c(O)c1-3 [Apomorphine],AVERAGE ROTATION SCORES (Rotations/minutes) Contralateral,[3]; 0.1 mg/kg i.p.,4.8 Rotations/minutes
same,AVERAGE ROTATION SCORES (Rotations/minutes) Ipsilateral,[3]; 0.1 mg/kg i.p.,0.1 Rotations/minutes
same,AVERAGE ROTATION SCORES (Rotations/minutes) Contralateral,[3]; 0.5 mg/kg i.p.,13.7 Rotations/minutes
same,AVERAGE ROTATION SCORES (Rotations/minutes) Ipsilateral,[3]; 0.5 mg/kg i.p.,0 Rotations/minutes
same,circling behavior (in words),[3],rapid circling behavior to the contralateral side of the lesion
O=C[C@H](O)[C@@H](O)[C@H](O)[C@H](O)CO [D-glucose],BPI Value (%),[6],33%
same,BPI index,[6],33
NCCc1ccc(O)c(O)c1 [Dopamine],brain penetration index (BPI),[1],about 4
same,BPI Value (%),"[1]; BPI=[brain]/[liver]x100, 5 minutes after s.c. injection",4%
same,changes in open-field activity,[7],No significant changes
"CCC=CCC=CCC=CCC=CCC=CCC=CCCC(=O)O [carrier molecule (T), 4, 7, 10, 13, 16, 19 docosahexa-enoic acid, reference compound]",changes in open-field activity,[7],No significant changes
same,swelling of the brain,[8],induce swelling of the brain
